Each block holds one compound with its values, some of them ahead of it. Active and inactive are the calls of the source. The rule behind the calls is not given here.
Tests used:
[1] = molecular target: T1, Stimulator of interferon genes protein (Homo sapiens, UniProt Q86WV6); experiment: Agonist activity at STING in human THP1-Dual cells assessed as fold change in ISG activation at 10 uM incubated for 24 hrs by Quanti-luc reagent based assay relative to control; assay type: cell-based; details: filed as agonist
[2] = molecular target: T2, Stimulator of interferon genes protein (Mus musculus) (UniProt Q3TBT3); experiment: Agonist activity at STING in mouse RAW-Lucia ISG cells assessed as fold change in ISG activation at 50 uM incubated for 24 hrs by Quanti-luc reagent based assay relative to control; assay type: cell-based; details: filed as agonist
T2 sequence (whole entry): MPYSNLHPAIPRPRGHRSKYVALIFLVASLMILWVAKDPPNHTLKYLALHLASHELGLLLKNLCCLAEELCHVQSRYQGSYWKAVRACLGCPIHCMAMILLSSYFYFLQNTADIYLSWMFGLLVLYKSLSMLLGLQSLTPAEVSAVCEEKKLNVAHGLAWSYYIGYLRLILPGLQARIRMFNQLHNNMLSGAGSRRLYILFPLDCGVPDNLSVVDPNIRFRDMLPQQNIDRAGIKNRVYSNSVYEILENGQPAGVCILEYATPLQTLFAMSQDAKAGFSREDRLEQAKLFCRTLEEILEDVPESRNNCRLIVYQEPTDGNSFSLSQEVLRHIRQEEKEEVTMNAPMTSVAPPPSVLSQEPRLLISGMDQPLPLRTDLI

[3] = molecular target: T1, Stimulator of interferon genes protein; experiment: Agonist activity at STING in human THP1-Dual cells assessed as ISG activation incubated for 24 hrs by Quanti-luc reagent based assay; assay type: cell-based
[4] = molecular target: T3, Stimulator of interferon genes protein (Mus musculus, UniProt Q3TBT3); experiment: Agonist activity at STING in mouse RAW-Lucia ISG cells assessed as ISG activation incubated for 24 hrs by Quanti-luc reagent based assay; assay type: cell-based
T3 sequence (Q3TBT3 whole entry): T2 sequence (whole entry)

[5] = Agonist activity at human STING R232H mutant
[6] = molecular target: T1, Stimulator of interferon genes protein; experiment: Activation of STING pathway in human THP1-Dual cells assessed as increase in IFNbeta expression level at 0.01 to 1 uM measured for 24 hrs by chemiluminescence based analysis; assay type: cell-based; details: filed as activator, dose 0.01-1 µM
[7] = molecular target: T1, Stimulator of interferon genes protein; experiment: Activation of STING pathway in human THP1-Dual cells assessed as increase in IFNbeta expression level at 0.1 uM measured for 24 hrs by chemiluminescence based analysis; assay type: cell-based; details: filed as activator
[8] = molecular target: T1, Stimulator of interferon genes protein; experiment: Activation of STING pathway in human THP1-Dual cells assessed as increase in IP-10 expression level at 0.01 to 1 uM measured for 24 hrs by chemiluminescence based analysis; assay type: cell-based; details: filed as activator, dose 0.01-1 µM
[9] = molecular target: T1, Stimulator of interferon genes protein; experiment: Activation of STING pathway in human THP1-Dual cells assessed as increase in IP-10 expression level at 0.1 uM measured for 24 hrs by chemiluminescence based analysis; assay type: cell-based; details: filed as activator
[10] = molecular target: T1, Stimulator of interferon genes protein; experiment: Activation of STING pathway in human 293T-Dual hSTING-H232 cells assessed as increase in IFNbeta expression level measured for 24 hrs by SEAP reporter based Quanti-luc assay; assay type: cell-based; details: filed as activator, dose 0.01-1 µM, DDE = dose-dependent effect
[11] = molecular target: T1, Stimulator of interferon genes protein; experiment: Activation of STING pathway in human 293T-Dual hSTING-H232 cells assessed as increase in ISG expression level measured for 24 hrs by SEAP reporter based Quanti-luc assay; assay type: cell-based; details: filed as activator, dose 0.01-1 µM, DDE = dose-dependent effect
[12] = molecular target: T1, Stimulator of interferon genes protein; experiment: Agonist activity at STING (unknown origin)
[13] = molecular target: T1, Stimulator of interferon genes protein; experiment: Agonist activity at STING in human THP-1 cells; assay type: cell-based

T1 sequence (Q86WV6 whole entry): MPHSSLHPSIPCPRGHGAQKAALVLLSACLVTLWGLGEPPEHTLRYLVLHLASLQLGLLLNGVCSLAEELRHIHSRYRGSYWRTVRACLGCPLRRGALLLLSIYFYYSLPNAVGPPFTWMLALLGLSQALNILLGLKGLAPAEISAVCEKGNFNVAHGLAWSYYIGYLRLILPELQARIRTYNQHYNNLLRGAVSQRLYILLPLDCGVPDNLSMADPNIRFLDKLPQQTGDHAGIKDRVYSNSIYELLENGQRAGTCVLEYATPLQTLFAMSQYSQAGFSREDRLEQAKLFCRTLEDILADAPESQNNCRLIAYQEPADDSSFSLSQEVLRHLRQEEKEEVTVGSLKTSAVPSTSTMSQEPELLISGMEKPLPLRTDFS

fold change (FC) [1]: 80.3 | fold change (FC) [2]: 1.5 | EC50 [3]: 1860 nM | EC50 [4]: > 100 µM
SMILES: CCn1nc(C)cc1C(=O)Nc1nc2cc(C(N)=O)sc2n1C/C=C/Cn1c(NC(=O)c2cc(C)nn2CC)nc2cc(C(N)=O)cc(O[C@H]3CCOC3)c21

fold change (FC) [1]: 141 | fold change (FC) [2]: 12.6 | EC50 [3]: 280 nM | EC50 [4]: > 100 µM
SMILES: CCn1nc(C)cc1C(=O)Nc1nc2cc(C(N)=O)sc2n1C/C=C/Cn1c(NC(=O)c2cc(C)nn2CC)nc2cc(C(N)=O)cc(OCC3CC3)c21

fold change (FC) [1]: 8.42 | fold change (FC) [2]: 0.64
SMILES: CCn1nc(C)cc1C(=O)Nc1nc2cc(C(N)=O)sc2n1CCCCn1c(NC(=O)c2cc(C)nn2CC)nc2cc(C(N)=O)cc(OCCCN3CCOCC3)c21

fold change (FC) [1]: 1.15 | fold change (FC) [2]: 2.63
SMILES: CCn1nc(C)cc1C(=O)Nc1nc2cc(C(N)=O)sc2n1CCCCn1c(NC(=O)c2cc(C)nn2CC)nc2cc(C(N)=O)sc21

Continued, compound first:

SMILES: CCn1nc(C)cc1C(=O)/N=c1\[nH]c2cc(C(N)=O)cc(OC)c2n1C/C=C/Cn1/c(=N/C(=O)c2cc(C)nn2CC)[nH]c2cc(C(N)=O)cc(OCCCN3CCOCC3)c21
EC50 [5]: 200 nM | Activity [6]: Active | Activity [7]: Active | Activity [8]: Active | Activity [9]: Active | Activity [10]: Dde | Activity [11]: Dde

SMILES: CCn1nc(C)cc1C(=O)Nc1nc2cc(NC(C)=O)ccc2n1CCCCn1c(NC(=O)c2cc(C)nn2CC)nc2cc(C(N)=O)cc(OCCCN3CCOCC3)c21
fold change (FC) [1]: 2.32 | fold change (FC) [2]: 1.18

SMILES: Nc1ncnc2c1ncn2[C@@H]1O[C@@H]2COP(=O)(O)O[C@H]3[C@@H](O)[C@H](n4cnc5c(N)ncnc54)O[C@@H]3COP(=O)(O)O[C@H]2[C@H]1O
EC50 [12]: 51.3 nM

SMILES: O=C(Nc1cc(F)c(F)cc1C(=O)O)c1ccc(N2C=CNC2)nn1
EC50 [13]: 2100 nM

From ChEMBL document CHEMBL5113434, “Discovery of novel Thieno[2,3-d]imidazole derivatives as agonists of human STING for antitumor immunotherapy using systemic administration” (Eur J Med Chem, 2022)
